According to article PMC9346113, “Therapeutic impact of BET inhibitor BI 894999 treatment: backtranslation from the clinic” (British Journal of Cancer, 2022):

Columns and labels:
[1] = system: 10–15 xenograft (BRD4-NUT); assay: 10–15 NC xenograft model; assay type: in vivo, mice; conditions: 2 mg/kg BI 894999
Source text: (§1) Mice were group-housed (8–10 mice per cage) under pathogen-free and controlled environmental conditions (21 ± 1.5 C temperature, 55 ± 10% humidity) in an AAALAC accredited facility and handled according to the institutional, governmental and European Union guidelines (Austrian Animal Protection Laws, GV-SOLAS and FELASA guidelines). Animal studies were approved by the internal ethics committee and the local government committee. Mice were 6- to 8-week-old female CIEA NOG purchased from Taconic, Denmark (NOD.Cg-Prkdc^scid Il2rg^tm1Sug/JicTac). 5 × 10^6 NC tumour cells were injected subcutaneously into the right flank of the mice (1 site per mouse). Mice were randomly distributed between the treatment and the vehicle control when tumours were well established and had reached volumes of 100–150 mm^3. Compounds were suspended in 0.5% Natrosol and administered once daily intra-gastral by gavage needle. Tumour diameters were measured three times a week with a calliper. […] Within each subtopic the p-values of the efficacy parameters were adjusted for multiple comparisons according to Bonferroni–Holm. The p-values of the tolerability parameter remained unadjusted in order not to overlook a possible adverse effect. The level of significance was fixed at α = 5%. An adjusted p-value of less than 0.05 was considered to show a statistically significant difference between the groups. The statistical evaluation was prepared using the software Graph Pad Prism.

[2] = system: 10326 xenograft (BRD3-NUT); assay: 10326 NC xenograft model; assay type: in vivo; conditions: 2 mg/kg BI 894999
Source text: as §1

[3] = PK analysis in mouse plasma; assay type: in vivo; conditions: CIEA NOG (NOD.Cg-Prkdc^scid Il2rg^tm1Sug/JicTac), po, mice, 2 mg/kg p.o.
Source text: PK analysis in mouse plasma. Oral treatment at the indicated doses. Sampling at the indicated timepoints.

10–15 BRD4-NUT = assay: Cell proliferation assay (Alamar readout), 10–15; assay type: cell-based, human; conditions: Homo sapiens, 96h, read-out: geomean GI50
Protocol: (§2) The NUT Carcinoma cell line Ty-82 was purchased from JCRB Japan No. 1330 and cultivated in RPMI 1640 supplemented with 10% fetal calf serum (FCS). The NC cell lines 10–15, 14169 and 10326 were in-licensed from Christopher French, Brigham & Womens Hospital, Boston, and were cultivated in DMEM supplemented with glutamax and 10% FCS.
(§3) Viability assays were performed on 96-well flat-bottom microtiter plates and incubated with Alamar Blue solution (Invitrogen, Carlsbad, US-CA). The effects of drug combinations were analysed using the Bliss Independence Model.
(§4) Dose response curves (96h cell proliferation assay - Alamar readout) on four NC cell lines with BET inhibitor BI 894999. Yellow bar: readout t zero (before adding of compound). Green bar: DMSO control (max proliferation).
(§5) Dose response curves (96h cell proliferation assay - Alamar readout) on four NC cell lines with multiple BET inhibitors.

BRD4-BD1 = BRD4-BD1 (Homo sapiens, UniProt O60885); assay: BRD4 AlphaLISA assay, BRD4-BD1; assay type: binding; conditions: displacement of acetyl-histone H4 peptide (Lys5, 8, 12, 16)
Source text: (§6) This bead-based proximity assay is based on the competitive displacement of a histone peptide (acetyl-histone H4/Lys5, 8, 12, 16) from the human bromodomain [22].

BRD3-NUT = system: T1, BRD3-NUT; assay: IHC of 10326 xenograft tumours, NUT protein; assay type: in vivo, mice; conditions: day 21, 2 mg/kg BI 894999
T1 construct: endogenous in cells; host or cells: 10326 NUT carcinoma cells, in culture (A11) and as subcutaneous xenograft tumours in NOG mice (A26)
Protocol: Immunohistochemistry was performed on formalin-fixed, paraffin-embedded tumour tissue using antibodies against human Ki67(Cell Signaling #9027, 1:400 dilution), anti-human mitochondria (Abcam ab92824, 1:1000 dilution) and against endogenous NUT protein (Cell Signaling #3625, 1:50 dilution) used to detect NUT fusion proteins. Digital images of whole tissue sections were acquired using a Leica SCN400 histology scanner (Leica Microsystems). Ki67-positive index was evaluated using Halo Software V. 3.2 (Indica lab). Regions of interest (ROIs) within the tissue sections were first identified using Halo Software via machine learning technology across pathological samples and tissue control, within these ROIs, nuclei were detected and classified as positive or negative based on IHC staining thresholds.
BRD3-NUT 10326 tumor sections after treatment with 2 mg/kg BI 894999, 5 mg/kg or 10 mg/kg CCS1477 and the combination of both. IHC staining for NUT protein.

Ty-82 BRD4-NUT = assay: Cell proliferation assay (Alamar readout), Ty-82; assay type: cell-based, human; conditions: Homo sapiens, TY82, 96h, read-out: geomean GI50
Protocol: as §2, §3, §4, §5

BRD4-BD2 = BRD4-BD2 (Homo sapiens, UniProt O60885); assay: BRD4 AlphaLISA assay, BRD4-BD2; assay type: binding; conditions: displacement of acetyl-histone H4 peptide (Lys5, 8, 12, 16)
Source text: as §6

10326 BRD3-NUT = assay: Cell proliferation assay (Alamar readout), 10326; assay type: cell-based, human; conditions: Homo sapiens, 96h, read-out: geomean GI50
Protocol: as §2, §3, §4, §5

HEXIM1 and HIST2H2BF = assay: Nanostring analysis of pathway modulation markers in patient blood; assay type: in vivo; conditions: patients
Protocol: Schedule B (NCT02516553): daily oral treatment from Day 1 to Day 14 at 2.5 mg/day followed by a week-off in 3-week cycles. Schedule C (NCT02516553): one week-on, one week-off treatment, repeated every two weeks in 4-week cycles with, at each treatment week, a loading dose (6 mg) on Day 1 followed by a maintenance dose (3 mg per day) on the following 6 days.
Total RNA was extracted from whole blood using PAXgene Blood RNA kit (Qiagen) following the manufacturers’ instructions. Total RNA was quantified by direct absorbance measurement at 260 nm using a NanoDrop Spectrophotometer. Quality check was performed by additional measurement of absorbance at 280 nm and calculation of the absorbance ratio OD260/OD280.
mRNA expression was assessed using a custom NanoString nCounter codeset generated for the genes of interest plus housekeeping genes. In brief, probes were hybridised to 150 ng of total RNA for 19 h at 65 °C and applied to the nCounter™ Preparation Station for automated removal of excess probe and immobilisation of probe‐transcript complexes on a streptavidin‐coated cartridge. Data was collected using the nCounter™ Digital Analyzer by counting the individual barcodes.
Data were analysed using an in-house analysis pipeline that follows the latest Nanostring Technologies standards for the analysis of nCounter data. The analysis pipeline includes QC of the raw data using the NACHO [26]. The housekeeping genes ACTB, GAPDH, HPRT1, MGAT1 and TMED9 were used for normalisation. After normalisation expression values were exported and used for figure generation using […] [27].

CNc1nc(-c2nc3ccc(N4CCN(C)CC4)cc3n2Cc2ccccc2)cn2c(C)nnc12 [BI 894999]
TGI [1]: 40% | TGI [2]: 99% | Cmax [3]: 10 nM | GI50 (10–15 BRD4-NUT): 1.7 nM | IC50 (BRD4-BD1): 5 ± 3 nM | speckled megadomain localisation (NUT staining) (BRD3-NUT): complete loss | GI50 (Ty-82 BRD4-NUT): 2.6 nM | IC50 (BRD4-BD2): 41 ± 30 nM | GI50 (10326 BRD3-NUT): 1.2 nM | pharmacodynamic modulation of HEXIM1 and HIST2H2BF (HEXIM1 and HIST2H2BF; Schedule B 2.5 mg): max. two-fold | PD modulation of HEXIM1 and HIST2H2BF (HEXIM1 and HIST2H2BF; Schedule C 6/3 mg, maximum): up to four-fold | PD modulation of HEXIM1 and HIST2H2BF still measurable (HEXIM1 and HIST2H2BF; Schedule C, 23.5 h after drug application): two-fold
